Columns and labels:
Type in all cases: biochemical
MMP-9 = target: T1, MMP-9 (Homo sapiens, UniProt P14780); assay: Test for MMP inhibitory effects: cleavage of fluorescein-conjugated gelatin by MMP-9
T1 construct: purchased Chemicon International, CA, USA
Experimental: (§1) The assay measures the effect of the tested compounds on the proteolytic activity of metalloproteases by assessing the cleavage of a fluorogenic substrate. In the uncleaved substrate the fluoresensce is quenched intramolecularly, however, cleavage of the substrate relieves the quenching yielding fluorescent peptides [Bickett, Anal. Biochem, 212, 58-64, 1993; Knight, FEBS Lett., 296, 263-266, 1992].
(§2) The compounds were tested for inhibitory effects towards MMP-1 and MMP-9 (Chemicon International, CA, USA) and MMP-2 (Biogenesis Ltd, UK). Substrate for MMP-1 was M-2055 (Dnp-Pro-β-cyclohexyl-Ala-Gly-Cys(Me)-His-Ala-Lys(N-Me-Abz)-NH2), which is a synthetic peptide-like structure, obtained from Bachem AG, Schwitzerland. Substrate for MMP-2 and MMP-9 was fluorescein-conjugated gelatin obtained from Molecular Probes Inc., OR, USA.
(§3) The enzymes were activated with phenyl mercuric acetate, and incubated with the appropriate substrate and different levels of the compound to be tested. The exitation/emission wavelengths were 350/450 and 485/530 for M-2055 and gelatine, respectively.
(§4) The molar concentration of the test compounds resulting in 50% inhibition of the enzymatic activity (IC50) was calculated from the dose-response curve. For convenience, the results are reported as pIC50, i.e. −log(IC50).

MMP-1 = target: T2, MMP-1 (Homo sapiens, UniProt P03956); assay: Test for MMP inhibitory effects: cleavage of fluorogenic substrate M-2055 by MMP-1
T2 construct: purchased Chemicon International, CA, USA
T2 sequence (P03956 100-469): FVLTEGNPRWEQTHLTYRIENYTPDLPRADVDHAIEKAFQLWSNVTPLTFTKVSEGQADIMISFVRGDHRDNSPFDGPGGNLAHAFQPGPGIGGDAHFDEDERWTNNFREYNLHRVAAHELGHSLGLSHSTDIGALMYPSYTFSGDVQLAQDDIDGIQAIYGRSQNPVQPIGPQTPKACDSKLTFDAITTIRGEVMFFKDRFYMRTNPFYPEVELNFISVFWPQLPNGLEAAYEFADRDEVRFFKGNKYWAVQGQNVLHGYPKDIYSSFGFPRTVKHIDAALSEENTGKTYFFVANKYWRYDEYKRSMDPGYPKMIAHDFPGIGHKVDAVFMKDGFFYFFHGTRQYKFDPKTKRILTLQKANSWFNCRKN
Experimental: as §1, §2, §3, §4

MMP-2 = target: T3, MMP-2 (Homo sapiens, UniProt P08253); assay: Test for MMP inhibitory effects: cleavage of fluorescein-conjugated gelatin by MMP-2
T3 construct: purchased Biogenesis Ltd, UK
T3 sequence (P08253 110-660): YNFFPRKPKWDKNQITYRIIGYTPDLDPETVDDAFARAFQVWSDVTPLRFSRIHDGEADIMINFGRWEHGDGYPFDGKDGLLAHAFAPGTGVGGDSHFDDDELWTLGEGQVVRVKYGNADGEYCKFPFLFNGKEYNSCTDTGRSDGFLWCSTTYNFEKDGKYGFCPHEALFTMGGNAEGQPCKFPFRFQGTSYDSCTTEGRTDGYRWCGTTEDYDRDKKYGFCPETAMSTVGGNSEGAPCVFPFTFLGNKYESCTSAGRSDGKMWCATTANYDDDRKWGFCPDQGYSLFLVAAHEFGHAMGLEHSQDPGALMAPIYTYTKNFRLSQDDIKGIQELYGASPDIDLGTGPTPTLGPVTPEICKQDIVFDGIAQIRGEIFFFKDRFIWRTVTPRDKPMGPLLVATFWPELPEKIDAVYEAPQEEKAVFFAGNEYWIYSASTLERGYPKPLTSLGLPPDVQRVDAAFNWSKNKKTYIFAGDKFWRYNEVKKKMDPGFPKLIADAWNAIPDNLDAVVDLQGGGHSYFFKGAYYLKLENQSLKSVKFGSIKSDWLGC
Experimental: as §1, §2, §3, §4

[1] = pIC50 = -log(IC50), molar, enzyme activated with phenyl mercuric acetate, substrate fluorescein-conjugated gelatin, excitation/emission 485/530

T1 sequence (P14780 107-707 limits assumed, species assumed): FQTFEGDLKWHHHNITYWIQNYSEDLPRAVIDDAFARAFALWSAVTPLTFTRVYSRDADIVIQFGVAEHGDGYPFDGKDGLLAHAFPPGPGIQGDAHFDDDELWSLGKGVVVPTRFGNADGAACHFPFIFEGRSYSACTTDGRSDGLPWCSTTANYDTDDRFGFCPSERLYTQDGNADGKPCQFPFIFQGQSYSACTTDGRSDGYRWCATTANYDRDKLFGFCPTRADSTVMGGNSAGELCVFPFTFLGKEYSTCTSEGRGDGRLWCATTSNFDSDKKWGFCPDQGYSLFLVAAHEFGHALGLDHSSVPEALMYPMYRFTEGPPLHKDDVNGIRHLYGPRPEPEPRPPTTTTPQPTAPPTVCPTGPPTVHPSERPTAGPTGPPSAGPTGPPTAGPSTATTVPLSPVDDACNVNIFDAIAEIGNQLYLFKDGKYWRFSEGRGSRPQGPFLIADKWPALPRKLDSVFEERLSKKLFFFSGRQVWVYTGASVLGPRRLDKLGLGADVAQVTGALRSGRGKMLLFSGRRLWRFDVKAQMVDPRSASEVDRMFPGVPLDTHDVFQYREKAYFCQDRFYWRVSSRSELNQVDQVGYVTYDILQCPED

Structure (SMILES)	IC50 (MMP-9)	IC50 (MMP-1)	IC50 (MMP-2)	pIC50 MMP-9 (MMP-9; [1])	pIC50 MMP-1 (MMP-1; pIC50 = -log(IC50), molar, enzyme activated with phenyl mercuric acetate, substrate M-2055, excitation/emission 350/450)	pIC50 MMP-2 (MMP-2; [1])
O=C(CN1CC=CCP1(=O)c1ccc(Oc2ccccc2)cc1)NO (racemic) [Example 1, (±)-N-hydroxy-2-oxo-2-(4-phenoxyphenyl)-azaphosphorin-4-ene-1-acetamide]	1 nM	2510 nM	5.01 nM	–	–	–
O=C(CN1CCCCCP1(=O)c1ccc(Oc2ccccc2)cc1)NO (racemic) [Example 5, (±)-N-hydroxy-2-oxo-2-(4-phenoxyphenyl)-azaphosphorepane-1-acetamide]	–	–	–	8.5	5.2	8.3
O=C(CN1CC=CCCP1(=O)c1ccc(Oc2ccccc2)cc1)NO (racemic) [Example 4, (±)-N-hydroxy-2-oxo-2-(4-phenoxyphenyl)-azaphosphorep-5-ene-1-acetamide]	6.31 nM	7940 nM	7.94 nM	–	–	–
O=C(CN1CC=CCP1(=O)c1ccc(Oc2ccc(Cl)cc2)cc1)NO (racemic) [Example 6, (±)-N-hydroxy-2-(4-(4-chlorophenoxy)-phenyl-2-oxo-azaphosphorin-4-ene-1-acetamide]	0.794 nM	5010 nM	3.98 nM	–	–	–

Source: patent publication US6605742B2, “Cyclo azaphospha hydrocarbons” (priority 2001, dated 2003)
